Read-outs that look alike come from different tables or passages of the source. Each block holds one molecule with its values, some of them ahead of it.
What was measured:
[1] = target: TNF (Homo sapiens, UniProt P01375); experiment: TNF FP Assay; format: binding; details: TNF 20 nM, 25° C., 2 hours
Method: TNF (20 nM) and test compound in 47 mM HEPES pH 6.5, 47 mM NaCl, 0.9 mM EDTA, 0.007% Triton X-100 were incubated at 25° C. for 2 hours. Fluorescence data was read with an Envision and plotted versus Compound concentration and fit to a single-site binding model.

[2] = target: T1, ASGP receptor (biotinylated ASGPR) (Homo sapiens, UniProt P07306); format: binding; details: SPR; Table 2; read-out: ASGPR SPR Binding KD
T1 construct: biotin (biotinylated)
T1 sequence (P07306 1-291): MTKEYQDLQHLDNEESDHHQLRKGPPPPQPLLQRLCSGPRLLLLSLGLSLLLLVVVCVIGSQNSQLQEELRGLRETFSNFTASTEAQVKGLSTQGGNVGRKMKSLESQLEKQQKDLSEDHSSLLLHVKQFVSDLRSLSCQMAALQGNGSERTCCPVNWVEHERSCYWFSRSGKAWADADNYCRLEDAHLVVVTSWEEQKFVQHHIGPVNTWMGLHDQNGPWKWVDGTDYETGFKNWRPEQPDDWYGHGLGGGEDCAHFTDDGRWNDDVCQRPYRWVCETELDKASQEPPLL

[3] = target: T2, ASGPR (Homo sapiens, UniProt P07306); experiment: ASGPR SPR binding
T2 construct: biotin (biotinylated)
T2 sequence (P07306 1-291): T1 sequence (P07306 1-291)

[4] = target: IgG; experiment: IgG SPR binding
[5] = target: T3, ASGPR receptor on HepG2 cells (ternary complex with AF488-labeled antibody) (Homo sapiens, UniProt P07306); experiment: Ternary complex formation assay (flow cytometry, cell-associated AF488 fluorescence); format: cell-based; details: 100 nM AF488-labeled antibody, 1 hour at 4° C.
T3 construct: host or cells: HepG2
T3 sequence (P07306 1-291): T1 sequence (P07306 1-291)
T3 sequence (P07307 1-311 partner): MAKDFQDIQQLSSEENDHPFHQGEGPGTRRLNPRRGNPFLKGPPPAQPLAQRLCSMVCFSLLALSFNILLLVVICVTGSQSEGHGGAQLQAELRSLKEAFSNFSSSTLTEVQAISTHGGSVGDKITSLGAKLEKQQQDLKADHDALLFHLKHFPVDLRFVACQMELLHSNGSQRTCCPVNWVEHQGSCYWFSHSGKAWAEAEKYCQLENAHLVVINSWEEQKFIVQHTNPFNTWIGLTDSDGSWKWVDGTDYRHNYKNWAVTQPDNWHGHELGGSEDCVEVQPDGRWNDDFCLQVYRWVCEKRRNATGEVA

[6] = system: HepG2 cells; experiment: Cellular uptake assay (high-content imaging); format: cell-based, human; details: 100 nM AF488-labeled antibody, 6 hours at 37° C.
Text: The cellular uptake assay is designed to measure compound-mediated cellular uptake of fluorescently labeled antibody following ternary complex formation with the ASGPR receptor and endocytosis of the entire complex into cells. The optimal concentration of compound will result in the maximum number of cells with intracellular antibody and is represented as the peak ratio of antibody-positive cells over the total number of cells. As with the ternary complex formation assay, too much or too little compound will result in suboptimal complex formation and fewer cells will have measurable intracellular fluorescence.
Human IgG (Sigma-Aldrich, 14506) was covalently labeled with Alexa Fluor 488 using the Alexa Fluor™ 488 Protein Labeling Kit (Thermo Fisher, A10235) following the manufacturer's instructions. HepG2 cells were plated in DMEM supplemented with 10% FBS at 5,000 cells per well in a 96-well microtiter plate and incubated for approximately 18 hours at 37° C./5% CO2. For studies using human IgG, 100 nM AF488-labeled human IgG antibodies and serial dilutions of IgG-based degrader (0.1% DMSO final concentration) were added to the cells and the mixture was incubated at 37° C. for 6 hours. For studies using DNP, 100 nM AF488-labeled DNP antibodies and serial dilutions of DNP-based degrader (0.1% DMSO final concentration) were added to the cells and the mixture was incubated at 37° C. for 6 hours. HepG2 cells were fixed in 100% methanol at −20° C. for 20 min, washed 3× with PBS, then stained with DAPI (Thermo, Cat #H3570). HepG2 cells were imaged for DAPI and Alexa Fluor 488 using the Operetta CLS, high-content analysis system (PerkinElmer). Data is presented as the ratio of the number of cells positive for hIgG or DNP (AF-488 fluorescence) over the total cell number (measured by DAPI).

[7] = Table 3, read-out: ASGPR SPR Binding KD
[8] = Table 3, read-out: IgG SPR Binding KD
[9] = Table 3, class symbols, read-out: Ternary Complex EC50
[10] = Homo sapiens, Table 3, class symbols, read-out: Uptake Assay (EC50)

TNF, sequence (P01375 77-233 limits assumed): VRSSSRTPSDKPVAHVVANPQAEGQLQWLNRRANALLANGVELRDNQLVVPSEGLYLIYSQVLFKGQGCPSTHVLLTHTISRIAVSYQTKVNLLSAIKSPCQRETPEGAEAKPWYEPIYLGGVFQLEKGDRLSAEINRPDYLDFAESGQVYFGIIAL

SMILES: CC1(C)C(=O)c2ccc(-c3cnc(N4CCN5C(=O)N(CCOCCNC(=O)c6ccc(C(=O)NC[C@H]7OC[C@H](Nc8cncc(C(F)(F)F)n8)[C@@H](O)[C@H]7O)cc6)C[C@@H]5C4)nc3)nc2N1Cc1cccnc1C#N [compound 18]
- IC50 ([1]; Table 2): > 1000 nM

SMILES: O=C(COc1ccc(CN2CCN(C[C@H]3OC[C@H](Nc4cncc(C(F)(F)F)n4)[C@@H](O)[C@H]3O)CC2)cc1)N1CCN(Cc2ccc(-c3c[nH]c4ccncc34)c(OCCc3ccc(-c4cccc5ccncc45)cc3)c2)CC1 [compound 4]
- Kd [2]: < 100 nM
- IC50 ([1]; Table 2, numeric bound): > 112 nM

SMILES: O=C(CNC[C@H]1OC[C@H](Nc2cncc(C(F)(F)F)n2)[C@@H](O)[C@H]1O)NCCOCCOCCOCc1ccc(-c2cccc3ccncc23)c(OCCc2ccc(-c3cccc4ccncc34)cc2)c1 [compound 6]
- IC50 ([1]; Table 2): 100 to 500 nM

SMILES: O=C(CCOCC(COCCC(=O)NCCOCCOCCOCCOC[C@H]1OC[C@H](Nc2cncc(C(F)(F)F)n2)[C@@H](O)[C@H]1O)NC(=O)COCCOCCOCCOCCOCC(=O)N1CCN(Cc2ccc(-c3c[nH]c4ccncc34)c(OCCc3ccc(-c4cccc5ccncc45)cc3)c2)CC1)NCCOCCOCCOCCOC[C@H]1OC[C@H](Nc2cncc(C(F)(F)F)n2)[C@@H](O)[C@H]1O [compound 5]
- IC50 ([1]; Table 2, numeric bound): > 136 nM

SMILES: CC1(C)C(=O)c2ccc(-c3cnc(N4CCN5C(=O)N(CCCNC(=O)COc6ccc(CN7CCN(C[C@H]8OC[C@H](Nc9cncc(C(F)(F)F)n9)[C@@H](O)[C@H]8O)CC7)cc6)C[C@@H]5C4)nc3)nc2N1Cc1cccnc1C#N [compound 12]
- Kd [2]: < 100 nM
- IC50 ([1]; Table 2): 100 to 500 nM

SMILES: CC1(C)C(=O)c2ccc(-c3cnc(N4CCN5C(=O)N(CCCNC(=O)CNC[C@H]6OC[C@H](Nc7cncc(C(F)(F)F)n7)[C@@H](O)[C@H]6O)C[C@@H]5C4)nc3)nc2N1Cc1cccnc1C#N [compound 14]
- Kd [2]: < 100 nM
- IC50 ([1]; Table 2): 100 to 500 nM

SMILES: CC1(C)C(=O)c2ccc(-c3cnc(N4CCN5C(=O)N(CCCNC(=O)COc6cccc(CC(=O)NC[C@H]7OC[C@H](Nc8cncc(C(F)(F)F)n8)[C@@H](O)[C@H]7O)c6)C[C@@H]5C4)nc3)nc2N1Cc1cccnc1C#N [compound 16]
- Kd [2]: < 100 nM
- IC50 ([1]; Table 2): > 1000 nM

SMILES: CC(C)C[C@@H]1NC(=O)[C@H](Cc2cnc[nH]2)NC(=O)[C@H](Cc2c[nH]c3ccccc23)NC(=O)[C@H](C)NC(=O)[C@@H]2CSSC[C@H](NC(=O)[C@H](Cc3c[nH]c4ccccc34)NC(=O)[C@H](C(C)C)NC(=O)[C@H](CC(C)C)NC(=O)[C@H](CCC(=O)O)NC(=O)CNC1=O)C(=O)N[C@@H]([C@@H](C)O)C(=O)N1CCC[C@@H]1C(=O)N1C[C@H](NC(=O)c3ccc(N4CCC(CN5CCN(C[C@H]6OC[C@H](Nc7ccnc(C(F)(F)F)n7)[C@@H](O)[C@H]6O)CC5)CC4)cc3)C[C@H]1C(=O)N[C@@H](CC(=O)O)C(=O)N2 [compound 32]
- Kd [3, 7]: < 100 nM
- Kd [4, 8]: < 100 nM
- EC50 [5, 9]: < 100 nM
- EC50 [6, 10]: < 100 nM

SMILES: CC(=O)N[C@H]1[C@H](OCCCCOCCOCCOCCNC(=O)CCOCC(COCCC(=O)NCCOCCOCCOCCO[C@@H]2O[C@H](CO)[C@H](O)[C@H](O)[C@H]2NC(C)=O)NC(=O)CCCCCn2cc(CCCC(=O)NCCOCCOCCOCCOCCC(=O)N[C@H]3C[C@H]4C(=O)N[C@@H](CC(=O)O)C(=O)N[C@H]5CSSC[C@H](NC(=O)[C@H](Cc6c[nH]c7ccccc67)NC(=O)[C@H](C(C)C)NC(=O)[C@H](CC(C)C)NC(=O)[C@H](CCC(=O)O)NC(=O)CNC(=O)[C@H](CC(C)C)NC(=O)[C@H](Cc6cnc[nH]6)NC(=O)[C@H](Cc6c[nH]c7ccccc67)NC(=O)[C@H](C)NC5=O)C(=O)N[C@@H]([C@@H](C)O)C(=O)N5CCC[C@@H]5C(=O)N4C3)nn2)O[C@H](CO)[C@H](O)[C@@H]1O (stereo partly shown) [compound 86]
- Kd ([3]; second table, read-out: ASGPR KD): > 1000 nM
- Kd ([4]; second table, read-out: IgG KD): < 100 nM
- EC50 ([5]; the 25th table, class symbols, read-out: TCF EC50): > 1000 nM
- EC50 ([6]; the 25th table, class symbols, read-out: Uptake EC50): > 1000 nM

Next, values leading:

- Kd [2]: < 100 nM
- IC50 ([1]; Table 2): 500 to 1000 nM
SMILES: CC1(C)C(=O)c2ccc(-c3cnc(N4CCN5C(=O)N(CCOCCNC(=O)[C@H]6CC[C@H](C(=O)NC[C@H]7OC[C@H](Nc8cncc(C(F)(F)F)n8)[C@@H](O)[C@H]7O)CC6)C[C@@H]5C4)nc3)nc2N1Cc1cccnc1C#N [compound 17]

- Kd [2]: < 100 nM
- IC50 ([1]; Table 2): 100 to 500 nM
SMILES: CC1(C)C(=O)c2ccc(-c3cnc(N4CCN5C(=O)N(CCCNC(=O)CCN6CCN(CC(=O)NC[C@H]7OC[C@H](Nc8cncc(C(F)(F)F)n8)[C@@H](O)[C@H]7O)CC6)C[C@@H]5C4)nc3)nc2N1Cc1cccnc1C#N [compound 11]

- Kd [2]: < 100 nM
- IC50 ([1]; Table 2): > 1000 nM
SMILES: O=C(CCOCC(COCCC(=O)NCCOCCOCCOCCOC[C@H]1OC[C@H](Nc2cncc(C(F)(F)F)n2)[C@@H](O)[C@H]1O)NCC(=O)N1CCN(Cc2ccc(-c3c[nH]c4ccncc34)c(OCCc3ccc(-c4cccc5ccncc45)cc3)c2)CC1)NCCOCCOCCOCCOC[C@H]1OC[C@H](Nc2cncc(C(F)(F)F)n2)[C@@H](O)[C@H]1O [compound 2]

- Kd [3, 7]: < 100 nM
- Kd [4, 8]: < 100 nM
- EC50 [5, 9]: < 100 nM
- EC50 [6, 10]: < 100 nM
SMILES: CC(C)C[C@@H]1NC(=O)[C@H](Cc2cnc[nH]2)NC(=O)[C@H](Cc2c[nH]c3ccccc23)NC(=O)[C@H](C)NC(=O)[C@@H]2CSSC[C@H](NC(=O)[C@H](Cc3c[nH]c4ccccc34)NC(=O)[C@H](C(C)C)NC(=O)[C@H](CC(C)C)NC(=O)[C@H](CCC(=O)O)NC(=O)CNC1=O)C(=O)N[C@@H]([C@@H](C)O)C(=O)N1CCC[C@@H]1C(=O)N1C[C@@H](NC(=O)c3ccc(N4CCC(CN5CCN(C[C@H]6OC[C@H](Nc7nc(C(F)(F)F)ccc7F)[C@@H](O)[C@H]6O)CC5)CC4)cc3)C[C@H]1C(=O)N[C@@H](CC(=O)O)C(=O)N2 [compound 27]

- Kd [3, 7]: < 100 nM
- Kd [4, 8]: < 100 nM
- EC50 [5, 9]: < 100 nM
- EC50 [6, 10]: < 100 nM
SMILES: CC(C)C[C@@H]1NC(=O)[C@H](Cc2cnc[nH]2)NC(=O)[C@H](Cc2c[nH]c3ccccc23)NC(=O)[C@H](C)NC(=O)[C@@H]2CSSC[C@H](NC(=O)[C@H](Cc3c[nH]c4ccccc34)NC(=O)[C@H](C(C)C)NC(=O)[C@H](CC(C)C)NC(=O)[C@H](CCC(=O)O)NC(=O)CNC1=O)C(=O)N[C@@H]([C@@H](C)O)C(=O)N1CCC[C@@H]1C(=O)N1C[C@@H](NC(=O)c3ccc(N4CCC(CN5CCN(C[C@H]6OC[C@H](Nc7ccnc(C(F)(F)F)n7)[C@@H](O)[C@H]6O)CC5)CC4)cc3)C[C@H]1C(=O)N[C@@H](CC(=O)O)C(=O)N2 [compound 31]

- Kd [3, 7]: < 100 nM
- Kd [4, 8]: < 100 nM
- EC50 [5, 9]: < 100 nM
- EC50 ([6]; Homo sapiens, Table 3, numeric bounds, read-out: Uptake Assay (EC50)): > 1100 nM
SMILES: CC(C)C[C@@H]1NC(=O)[C@H](Cc2cnc[nH]2)NC(=O)[C@H](Cc2c[nH]c3ccccc23)NC(=O)[C@H](C)NC(=O)[C@@H]2CSSC[C@H](NC(=O)[C@H](Cc3c[nH]c4ccccc34)NC(=O)[C@H](C(C)C)NC(=O)[C@H](CC(C)C)NC(=O)[C@H](CCC(=O)O)NC(=O)CNC1=O)C(=O)N[C@@H]([C@@H](C)O)C(=O)N1CCC[C@@H]1C(=O)N1C[C@H](NC(=O)COCCOCC(=O)NC[C@H]3OC[C@H](Nc4cccc(C(F)(F)F)n4)[C@@H](O)[C@H]3O)C[C@H]1C(=O)N[C@@H](CC(=O)O)C(=O)N2 [compound 28]

Source: patent publication US20260083851A1 (AVILAR THERAPEUTICS, INC., priority 2022, published 2026)
